Data published in ChEMBL document CHEMBL1126056, “Asymmetric synthesis of 1,3-dioxolane-pyrimidine nucleosides and their anti-HIV activity” (J Med Chem, 1992).

Key:
[1] = Cytotoxicity in peripheral blood mononuclear cells (PBM).; format: functional, cell-based; settings: Homo sapiens
[2] = Effective concentration against HIV-1 in peripheral blood mononuclear cells (PBM).; format: functional, Homo sapiens
Vero = test: Cytotoxicity in vero cells.; format: functional, cell-based; settings: Chlorocebus sabaeus
[3] = Cytotoxicity in peripheral blood mononuclear cells(PBM).; format: functional, cell-based; settings: Homo sapiens
[4] = Effective concentration against HIV-1 in peripheral blood mononuclear cells(PBM).; format: functional, Homo sapiens
[5] = Cytotoxicity in peripheral blood mononuclear; format: functional, Homo sapiens
[6] = The compound was tested for antiviral activity against AZT resistant strain 9F HIV in PBM cells.; format: functional, cell-based; settings: Homo sapiens, PBMC
[7] = The compound was tested for antiviral activity against AZT resistant strain 10 HIV in PBM cells.; format: functional; settings: Homo sapiens, PBMC
[8] = The compound was tested for antiviral activity against AZT sensitive strain 9F HIV in PBM cells.; format: functional, cell-based; settings: Homo sapiens, PBMC
[9] = The compound was tested for antiviral activity against AZT sensitive 10 HIV in PBM cells.; format: functional; settings: Homo sapiens, PBMC

Structure (SMILES)	IC50 [1]	EC50 [2]	IC50 (Vero)	also measured
O=c1ccn([C@H]2CO[C@@H](CO)O2)c(=O)[nH]1	> 100 µM	> 100 µM	> 100 µM	–
Nc1ccn([C@@H]2CO[C@@H](CO)O2)c(=O)n1	> 100 µM	2.4 µM	> 100 µM	–
Nc1ccn([C@H]2CO[C@@H](CO)O2)c(=O)n1	62 µM	0.16 µM	8.3 µM	–
O=c1[nH]c(=O)n([C@H]2CO[C@@H](CO)O2)cc1Br	–	–	> 100 µM	IC50 [3]: > 100 µM; EC50 [4]: 9.3 µM
O=c1[nH]c(=O)n([C@@H]2CO[C@@H](CO)O2)cc1Br	–	–	> 100 µM	IC50 [3]: > 100 µM; EC50 [4]: > 100 µM
O=c1[nH]c(=O)n([C@H]2CO[C@@H](CO)O2)cc1Cl	–	6.8 µM	> 100 µM	IC50 [5]: > 100 µM
O=c1[nH]c(=O)n([C@@H]2CO[C@@H](CO)O2)cc1F	> 100 µM	> 100 µM	> 100 µM	–
O=c1[nH]c(=O)n([C@H]2CO[C@@H](CO)O2)cc1F	> 100 µM	69.6 µM	> 100 µM	–
O=c1ccn([C@@H]2CO[C@@H](CO)O2)c(=O)[nH]1	> 100 µM	> 100 µM	> 100 µM	–
O=c1[nH]c(=O)n([C@H]2CO[C@@H](CO)O2)cc1I	> 100 µM	> 100 µM	> 100 µM	–
O=c1[nH]c(=O)n([C@@H]2CO[C@@H](CO)O2)cc1I	> 100 µM	> 100 µM	> 100 µM	–
O=c1[nH]c(=O)n([C@@H]2CO[C@@H](CO)O2)cc1Cl	> 100 µM	> 100 µM	> 100 µM	–
Cc1cn([C@H]2C[C@H](N=[N+]=[N-])[C@@H](CO)O2)c(=O)[nH]c1=O [ZIDOVUDINE]	> 100 µM	–	28 µM	EC50 [6]: 1.2 µM; EC90 [7]: 19 µM; EC50 [8]: 0.0012 µM; EC50 [4]: 0.009 µM; EC90 [9]: 0.0065 µM
